Where a name gives a salt, the structure may show the parent alone. Read-outs that look alike come from different tables or passages of the source.
Columns and labels:
Serotonin (5HT) reuptake = target: T1, Serotonin (5HT) reuptake (Rattus norvegicus, UniProt P31652); assay: Serotonin (5HT) reuptake inhibition in rat brain synaptosomes (P2 fraction); assay type: biochemical; settings: read-out: Serotonin reuptake, % inhibition [10 μM]
T1 construct: synaptosomes are freshly isolated from areas of rat brain; from tissue; host or cells: rat brain synaptosomes (P2 fraction)
Description: (§1) Noradrenaline (NA) and Serotonin (5HT) Reuptake Inhibition
(§2) In order to be able to carry out these studies in vitro, synaptosomes are freshly isolated from areas of rat brain. A so-called “P2” fraction prepared by the method of Gray and Whittaker (E. G. Gray and V. P. Whittaker (1962) J. Anat. 76, 79-88) is used in each case. For the NA uptake, these vesicular particles are isolated from the hypothalamus of male rat brains.
(§3) A detailed description of the method will be found in the literature (M. Ch. Frink, H. H. Hennies, W. Englberger, M. Haurand and B. Wilffert (1996) Arzneim.-Forsch./Drug Res. 46 (III), 11, 1029-1036).

[1] = target: T2, Noradrenaline (NA) reuptake (Rattus norvegicus, UniProt Q63380); assay: Noradrenaline (NA) reuptake inhibition in rat brain synaptosomes (hypothalamus, P2 fraction); assay type: biochemical; settings: read-out: NA reuptake, % inhibition [10 μM]
T2 construct: synaptosomes are freshly isolated from areas of rat brain; from tissue; host or cells: rat hypothalamus synaptosomes (P2 fraction)
Description: as §1, §2, §3

human μ-opiate receptor = human μ-opiate receptor (Homo sapiens, UniProt P35372); assay: Affinity for the human μ-opiate receptor ([3H]-naloxone displacement, SPA, CHO-K1 membrane preparation); assay type: binding; settings: for inhibition at 1 µM: read-out: μ-Opioid receptor, % inhibition [1 μM]; for Ki: read-out: μ-Opioid receptor, Ki
Chain of human μ-opiate receptor (P35372 whole entry): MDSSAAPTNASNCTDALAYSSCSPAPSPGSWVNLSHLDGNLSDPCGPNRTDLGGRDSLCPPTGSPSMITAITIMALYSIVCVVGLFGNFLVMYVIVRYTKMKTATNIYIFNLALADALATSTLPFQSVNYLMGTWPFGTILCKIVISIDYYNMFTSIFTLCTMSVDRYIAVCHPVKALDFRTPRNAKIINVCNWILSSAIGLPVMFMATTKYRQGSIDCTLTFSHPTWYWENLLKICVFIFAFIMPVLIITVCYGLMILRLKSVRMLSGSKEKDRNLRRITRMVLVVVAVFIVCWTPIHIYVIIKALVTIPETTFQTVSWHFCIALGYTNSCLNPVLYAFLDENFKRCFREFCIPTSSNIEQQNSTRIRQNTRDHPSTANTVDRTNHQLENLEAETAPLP

T2 sequence (Q63380 1-617): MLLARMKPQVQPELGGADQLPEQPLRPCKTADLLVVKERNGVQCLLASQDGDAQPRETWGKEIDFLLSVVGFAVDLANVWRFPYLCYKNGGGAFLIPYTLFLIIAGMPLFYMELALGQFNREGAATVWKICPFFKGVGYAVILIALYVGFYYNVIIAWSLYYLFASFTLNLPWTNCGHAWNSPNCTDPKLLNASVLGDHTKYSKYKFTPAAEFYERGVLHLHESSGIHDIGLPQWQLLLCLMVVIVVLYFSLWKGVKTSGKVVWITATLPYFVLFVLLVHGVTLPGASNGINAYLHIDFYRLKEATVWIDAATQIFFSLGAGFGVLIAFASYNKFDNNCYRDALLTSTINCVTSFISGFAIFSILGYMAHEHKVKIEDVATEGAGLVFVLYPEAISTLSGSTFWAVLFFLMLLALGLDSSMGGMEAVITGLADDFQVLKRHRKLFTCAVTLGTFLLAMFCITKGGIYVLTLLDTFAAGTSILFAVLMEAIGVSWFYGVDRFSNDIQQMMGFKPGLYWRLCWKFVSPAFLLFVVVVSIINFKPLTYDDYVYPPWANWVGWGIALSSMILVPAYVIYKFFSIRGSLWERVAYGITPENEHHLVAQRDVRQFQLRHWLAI
T1 sequence (P31652 whole entry): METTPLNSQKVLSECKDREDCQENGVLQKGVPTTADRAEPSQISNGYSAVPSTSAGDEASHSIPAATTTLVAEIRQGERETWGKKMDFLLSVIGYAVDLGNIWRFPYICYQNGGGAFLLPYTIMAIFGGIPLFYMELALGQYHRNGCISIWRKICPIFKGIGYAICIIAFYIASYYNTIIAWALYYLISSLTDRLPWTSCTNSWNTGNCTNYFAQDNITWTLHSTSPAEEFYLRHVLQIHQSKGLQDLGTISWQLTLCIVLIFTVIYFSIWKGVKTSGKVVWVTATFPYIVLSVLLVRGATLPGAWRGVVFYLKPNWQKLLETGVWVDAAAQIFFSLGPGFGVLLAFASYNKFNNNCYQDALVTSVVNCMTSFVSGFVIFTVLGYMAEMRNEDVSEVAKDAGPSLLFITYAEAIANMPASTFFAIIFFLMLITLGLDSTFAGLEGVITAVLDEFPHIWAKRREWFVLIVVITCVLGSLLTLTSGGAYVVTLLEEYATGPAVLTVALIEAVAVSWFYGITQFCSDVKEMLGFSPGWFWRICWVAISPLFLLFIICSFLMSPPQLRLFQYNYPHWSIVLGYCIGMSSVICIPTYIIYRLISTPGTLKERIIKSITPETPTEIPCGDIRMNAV

Compound	inhibition at 1 µM (human μ-opiate receptor) [%]	Ki (human μ-opiate receptor) [nM]	also measured
CN(C)C(c1ccc(Cl)cc1)C1CCC(CC=O)CC1 (stereo not drawn) [compound 55, {4-[(4-Chlorophenyl)-dimethylamino-methyl]-cyclohexyl}-acetaldehyde]			inhibition at 10 µM (Serotonin (5HT) reuptake): 88%; inhibition at 10 µM [1]: 95%
CN(C)C(c1ccccc1)C1CCC(O)(Cc2ccccc2)CC1 (stereo not drawn) [compound 147, 1-benzyl-4-((dimethylamino)(phenyl)methyl)cyclohexanol hydrochloride]			inhibition at 10 µM [1]: 12%
CN(C)C(c1cccc(F)c1)C1CCC(NC(=O)c2nc(CC3CC3)no2)CC1 (stereo not drawn) [compound 500, 3-cyclopropylmethyl-[1,2,4]oxadiazole-5-carboxylic acid {4-[dimethylamino-(3-fluoro-phenyl)-methyl]-cyclohexyl}-amide]			inhibition at 10 µM [1]: 101%
CN(C)C(c1ccccc1)C1CCC(NC(=O)c2nc(-c3cccs3)no2)CC1 (stereo not drawn) [compound 497, 3-thiophen-2-yl-[1,2,4]oxadiazole-5-carboxylic acid [4-(dimethylamino-phenyl-methyl)-cyclohexyl]-amide]			inhibition at 10 µM [1]: 101%
CN(C)C(c1cccc(F)c1)C1CCC(NC(=O)c2nc(-c3ccccc3)no2)CC1 (stereo not drawn) [compound 499, 3-phenyl-[1,2,4]oxadiazole-5-carboxylic acid {4-[dimethylamino-(3-fluoro-phenyl)-methyl]-cyclohexyl}-amide]			inhibition at 10 µM [1]: 103%
COCc1noc(C(=O)NCCC2CCC(C(CCc3ccccc3)N(C)C)CC2)n1 (stereo not drawn) [compound 501, 3-methoxymethyl-[1,2,4]oxadiazole-5-carboxylic acid {2-[4-(1-dimethylamino-3-phenyl-propyl)-cyclohexyl]-ethyl}-amide]			inhibition at 10 µM [1]: 106%
Cc1noc(C(=O)NCCC2CCC(C(c3ccccc3)N(C)C)CC2)n1 (stereo not drawn) [compound 498, 3-methyl-[1,2,4]oxadiazole-5-carboxylic acid {2-[4-(dimethylamino-phenyl-methyl)-cyclohexyl]-ethyl}-amide]			inhibition at 10 µM [1]: 99%
CC(Oc1ccccc1)C(=O)NC1CCC(C(c2ccccc2)N(C)C)CC1 (stereo not drawn) [compound 230, N-[4-(dimethylamino-phenyl-methyl)-cyclohexyl]-2-phenoxy-propionamide]	86	21	
CN(C)C(c1ccccc1)C1CCC(CNC(=O)c2ccc(Cl)cc2Cl)CC1 (stereo not drawn) [compound 361, 2,4-dichloro-N-[4-(dimethylamino-phenyl-methyl)-cyclohexylmethyl]-benzamide]	85	42	
CN(C)C(c1ccccc1)C1CCC(CCNC(=O)Cc2ccccc2)CC1 (stereo not drawn) [compound 451, N-{2-[4-(dimethylamino-phenyl-methyl)-cyclohexyl]-ethyl}-2-phenyl-acetamide]	92	24	
CN(C)C(c1ccccc1)C1CCC(NC(=O)c2cccc([N+](=O)[O-])c2)CC1 (stereo not drawn) [compound 275, N-[4-(dimethylamino-phenyl-methyl)-cyclohexyl]-3-nitro-benzamide]	74	100	
CN(C)C(c1ccc(Cl)cc1)C1CCC(CNC(=O)c2ccccc2Cl)CC1 (stereo not drawn) [compound 354, 2-chloro-N-{4-[(4-chloro-phenyl)-dimethylamino-methyl]-cyclohexylmethyl}-benzamide]	86	53	
COc1ccc(CN(C(C)=O)C2CCC(C(c3ccccc3)N(C)C)CC2)cc1 (stereo not drawn) [compound 176, N-(4-((dimethylamino)(phenyl)methyl)cyclohexyl)-N-(4-methoxybenzyl)-acetamide]	86	19	
Cc1cc(C(=O)NC2CCC(C(c3cccs3)N(C)C)CC2)no1 (stereo not drawn) [compound 224, 5-Methyl-isoxazole-3-carboxylic acid [4-(dimethylamino-thiophen-2-yl-methyl)-cyclohexyl]-amide]	87		
CSc1ncccc1C(=O)NCC1CCC(C(c2ccc(Cl)cc2)N(C)C)CC1 (stereo not drawn) [compound 315, N-{4-[(4-chloro-phenyl)-dimethylamino-methyl]-cyclohexylmethyl}-2-methyl-sulfanyl-nicotinamide]		160	μ-Opioid receptor, % inhibition [1 μM] (human μ-opiate receptor): 97%
CN(C)C(c1cccs1)C1CCC(CNC(=O)c2ccccc2Br)CC1 (stereo not drawn) [compound 296, 2-bromo-N-[4-(dimethylamino-thiophen-2-yl-methyl)-cyclohexylmethyl]-benzamide]	100	0.3	
CN(C)C(c1ccccc1)C1CCC(CNC(=O)c2cccnc2Sc2ccc(Cl)cc2)CC1 (stereo not drawn) [compound 374, 2-(4-chloro-phenylsulfanyl)-N-[4-(dimethylamino-phenyl-methyl)-cyclohexyl-methyl]-nicotinamide]	84		

Compound	inhibition at 1 µM (human μ-opiate receptor) [%]	Ki (human μ-opiate receptor) [nM]	also measured
CN(C)C(c1ccc(Cl)cc1)C1CCC(CCNC(=O)c2ccccc2Cl)CC1 (stereo not drawn) [compound 403, 2-chloro-N-(2-{4-[(4-chloro-phenyl)-dimethylamino-methyl]-cyclohexyl}-ethyl)-benzamide]	81	74	
CN(C)C(c1cccs1)C1CCC(CNC(=O)c2csc3ccccc23)CC1 (stereo not drawn) [compound 302, benzo[b]thiophene-3-carboxylic acid [4-(dimethylamino-thiophen-2-yl-methyl)-cyclohexylmethyl]-amide]	99	1.6	
CN(C)C(c1cccc(F)c1)C1CCC(CCNC(=O)c2ccccc2Br)CC1 (stereo not drawn) [compound 396, 2-bromo-N-(2-{4-[dimethylamino-(3-fluoro-phenyl)-methyl]-cyclohexyl}-ethyl)-benzamide]	97	12	
Cc1ccc(C(=O)NC2CCC(C(c3ccccc3)N(C)C)CC2)cc1 (stereo not drawn) [compound 242, N-[4-(dimethylamino-phenyl-methyl)-cyclohexyl]-4-methyl-benzamide]	82	46	
COc1cccc(C2(O)CCC(C(c3ccc(Cl)cc3)N(C)C)CC2)c1 (stereo not drawn) [compound 164, 4-[(4-chloro-phenyl)-dimethylamino-methyl]-1-(3-methoxy-phenyl)-cyclohexanol]			inhibition at 1 µM (human μ-opiate receptor; 1 μM test substance, inhibition of specific [3H]-naloxone binding): 58%
CN(C)C(c1ccccc1)C1CCC(NC(=O)C23CC4CC(CC(C4)C2)C3)CC1 (stereo not drawn) [compound 236, adamantane-1-carboxylic acid [4-(dimethylamino-phenyl-methyl)-cyclohexyl]-amide]	83	63	
CN(C)C(c1cccs1)C1CCC(CCNC(=O)c2cccc(Cl)c2)CC1 (stereo not drawn) [compound 424, 3-chloro-N-{2-[4-(dimethylamino-thiophen-2-yl-methyl)-cyclohexyl]-ethyl}-benzamide]	99	2.7	
CN(C)C(c1cccs1)C1CCC(NC(=O)CC(C)(C)C)CC1 (stereo not drawn) [compound 200, N-[4-(dimethylamino-thiophen-2-yl-methyl)-cyclohexyl]-3,3-dimethyl-butyramide]	94	29	
CN(C)C(c1cccc(F)c1)C1CCC(CCNC(=O)c2c(F)cccc2F)CC1 (stereo not drawn) [compound 462, N-(2-{4-[dimethylamino-(3-fluoro-phenyl)-methyl]-cyclohexyl}-ethyl)-2,6-difluoro-benzamide]	91	55	
CN(C)C(c1ccccc1)C1CCC(CCNC(=O)c2c(Cl)cccc2Cl)CC1 (stereo not drawn) [compound 413, 2,6-dichloro-N-{2-[4-(dimethylamino-phenyl-methyl)-cyclohexyl]-ethyl}-benzamide]	81	31	
CN(C)C(c1ccc(Cl)cc1)C1CCC(CCNC(=O)c2ccccc2Br)CC1 (stereo not drawn) [compound 395, 2-bromo-N-(2-{4-[(4-chloro-phenyl)-dimethylamino-methyl]-cyclohexyl}-ethyl)-benzamide]	81	46	
CN(C)C(c1ccccc1)C1CCC(CNC(=O)c2csc(-c3ccccc3)n2)CC1 (stereo not drawn) [compound 335, 2-phenyl-thiazole-4-carboxylic acid [4-(dimethylamino-phenyl-methyl)-cyclohexylmethyl]-amide]	92	33	
CN(C)C(c1ccccc1)C1CCC(NC(=O)C2CCCC2)CC1 (stereo not drawn) [compound 288, cyclopentanecarboxylic acid [4-(dimethylamino-phenyl-methyl)-cyclohexyl]-amide]	70	160	
CN(C)C(c1cccc(F)c1)C1CCC(CNC(=O)c2cccs2)CC1 (single isomer, unassigned) [compound 340, thiophene-2-carboxylic acid {4-[dimethylamino-(3-fluoro-phenyl)-methyl]-cyclohexylmethyl}-amide]		55	μ-Opioid receptor, % inhibition [1 μM] (human μ-opiate receptor; 1 µM): 91%
CN(C)C(c1ccccc1)C1CCC(NC(=O)c2cccc3ccccc23)CC1 (stereo not drawn) [compound 226, naphthyl-1-carboxylic acid [4-(dimethylamino-phenyl-methyl)-cyclohexyl]-amide]		58	μ-Opioid receptor, % inhibition [1 μM] (human μ-opiate receptor): 87%
CCC(C)C(=O)NCC1CCC(C(c2cccc(F)c2)N(C)C)CC1 (single isomer, unassigned) [compound 378, N-{4-[dimethylamino-(3-fluoro-phenyl)-methyl]-cyclohexylmethyl}-2-methyl-butyramide]		55	μ-Opioid receptor, % inhibition [1 μM] (human μ-opiate receptor; 1 µM): 83%
